Data published in patent publication US20070021439A1, “Methods of reducing risk of infection from pathogens with soluble amide and ester pyrazinoylguanidine sodium channel blockers” (Parion Sciences, Inc., priority 2005, published 2007).
Where a name gives a salt, the structure may show the parent alone. Read-outs that look alike come from different tables or passages of the source.

Assays:
[1] = Solubility of compounds in sodium chloride solution; type: physicochemical; conditions: saline or isotonic, thermodynamic from solid, ambient temperature
Protocol: Compound solubility was measured in water, 0.12 or 0.9% sodium chloride solution at ambient temperature for up to 10 days. Using a UV/Visable Spectrophotometer and applying Beer's Law with the calculated extinction coefficient of amiloride (18.6 mM, absorbance values at 362 nm taken from D. Mazzo 1986) the free base concentration in solution was calculated at specified time points. All samples were stored for the duration of the experiment in a single/closure system consisting of glass vials with a stopper-top closure. The vials were maintained at ambient temperature, in the dark, and in the upright position. Compound stability was measured using reverse phase high performance liquid chromatography on the final filtered pulled sample (day 10).
Table 2 gives the solubility in saline of selected amide bis methane sulfonic acid salts and compares them to the mono addition methane sulfonic acid salt of PSA 9714.

[2] = target: T1, ENaC (epithelial sodium channel) (Canis lupus familiaris, UniProt A0A8I3MKE6+A0A8I3Q679+Q95165); experiment: Epithelial sodium channel blocking activity (short circuit current, Ussing chambers) in canine bronchial epithelium; type: cell-based; conditions: for Fold Amiloride (PSA4022 = 100): relative potency, PSA4022 = 100, using IC50 from PSA4022 in same run
T1 construct: endogenous in cells; host or cells: primary canine bronchial (airway) epithelial cells cultured at air-liquid interface, mounted in Ussing chambers
T1 sequence (A0A8I3Q679 1-649): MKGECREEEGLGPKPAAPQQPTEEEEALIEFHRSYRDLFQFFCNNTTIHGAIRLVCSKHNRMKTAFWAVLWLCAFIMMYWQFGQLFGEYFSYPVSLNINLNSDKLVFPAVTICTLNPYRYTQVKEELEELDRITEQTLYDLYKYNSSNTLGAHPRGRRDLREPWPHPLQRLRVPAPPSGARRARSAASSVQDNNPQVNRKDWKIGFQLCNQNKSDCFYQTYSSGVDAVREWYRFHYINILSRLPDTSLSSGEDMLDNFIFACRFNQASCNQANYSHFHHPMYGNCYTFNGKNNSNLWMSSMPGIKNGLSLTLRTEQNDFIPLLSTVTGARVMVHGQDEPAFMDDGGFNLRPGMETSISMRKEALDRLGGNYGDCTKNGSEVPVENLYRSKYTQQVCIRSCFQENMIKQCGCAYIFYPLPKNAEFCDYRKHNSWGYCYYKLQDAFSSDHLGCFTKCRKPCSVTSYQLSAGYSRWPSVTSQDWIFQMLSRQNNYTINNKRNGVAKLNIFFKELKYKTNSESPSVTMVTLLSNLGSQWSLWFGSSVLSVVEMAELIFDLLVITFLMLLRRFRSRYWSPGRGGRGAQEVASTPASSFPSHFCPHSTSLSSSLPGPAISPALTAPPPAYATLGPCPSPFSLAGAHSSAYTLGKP
T1 sequence (Q95165 1-641): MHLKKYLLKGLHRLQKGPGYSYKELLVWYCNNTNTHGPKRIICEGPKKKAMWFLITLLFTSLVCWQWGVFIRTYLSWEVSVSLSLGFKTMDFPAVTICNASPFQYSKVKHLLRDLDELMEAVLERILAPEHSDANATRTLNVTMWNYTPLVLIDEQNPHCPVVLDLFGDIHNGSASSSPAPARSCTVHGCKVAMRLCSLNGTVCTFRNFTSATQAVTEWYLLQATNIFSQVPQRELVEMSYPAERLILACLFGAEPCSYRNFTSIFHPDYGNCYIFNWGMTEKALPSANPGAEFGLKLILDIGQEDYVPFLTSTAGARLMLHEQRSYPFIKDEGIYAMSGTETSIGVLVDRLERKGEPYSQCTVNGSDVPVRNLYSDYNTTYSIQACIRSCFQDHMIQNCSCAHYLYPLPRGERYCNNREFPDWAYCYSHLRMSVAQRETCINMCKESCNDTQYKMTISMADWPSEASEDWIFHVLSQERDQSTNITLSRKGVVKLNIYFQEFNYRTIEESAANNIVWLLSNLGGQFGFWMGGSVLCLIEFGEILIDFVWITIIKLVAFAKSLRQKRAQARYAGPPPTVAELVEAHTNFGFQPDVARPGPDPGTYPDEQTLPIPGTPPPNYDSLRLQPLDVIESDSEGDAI
T1 sequence (A0A8I3MKE6 1-646): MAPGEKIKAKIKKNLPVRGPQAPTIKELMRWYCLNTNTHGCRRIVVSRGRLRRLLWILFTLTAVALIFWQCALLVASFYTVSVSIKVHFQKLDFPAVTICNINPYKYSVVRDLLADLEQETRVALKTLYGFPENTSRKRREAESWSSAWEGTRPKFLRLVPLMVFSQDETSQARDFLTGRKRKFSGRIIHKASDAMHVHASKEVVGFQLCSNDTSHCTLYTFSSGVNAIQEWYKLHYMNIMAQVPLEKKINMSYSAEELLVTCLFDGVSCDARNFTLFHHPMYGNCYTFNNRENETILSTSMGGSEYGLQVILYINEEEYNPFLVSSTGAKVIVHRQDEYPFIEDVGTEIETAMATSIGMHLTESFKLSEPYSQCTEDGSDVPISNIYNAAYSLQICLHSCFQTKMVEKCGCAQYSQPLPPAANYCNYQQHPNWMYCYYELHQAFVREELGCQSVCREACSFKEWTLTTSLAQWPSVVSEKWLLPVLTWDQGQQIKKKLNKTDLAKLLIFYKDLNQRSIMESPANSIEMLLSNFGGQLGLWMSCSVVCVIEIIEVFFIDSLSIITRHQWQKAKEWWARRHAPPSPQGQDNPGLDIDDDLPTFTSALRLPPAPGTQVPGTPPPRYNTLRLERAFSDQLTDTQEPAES
Protocol: One assay used to assess mechanism of action and/or potency of the compounds of Formula I involves the determination of lumenal drug inhibition of airway epithelial sodium currents measured under short circuit current (ISC) using airway epithelial monolayers mounted in Ussing chambers. Cells obtained from freshly excised human, dog or sheep airways are seeded onto porous 0.4 micron Snapwell™ Inserts (CoStar), cultured at air-liquid interface (ALI) conditions in hormonally defined media, and assayed for sodium transport activity (ISC in μA/cm^2) while bathed in Krebs Bicarbonate Ringer (KBR) in Ussing chambers. All test drug additions are to the lumenal bath with half-log dose addition protocols (from 1×10^−11 M to 3×10^−5 M), and the cumulative change in ISC (inhibition) recorded. All drugs are prepared in dimethyl sulfoxide as stock solutions at a concentration of 1×10^−2 M and stored at −20° C. Six preparations are typically run in parallel; one preparation per run incorporates a positive control. All data from the voltage clamps are collected via a computer interface and analyzed off-line.
Dose-effect relationships for all compounds are considered and analyzed by the Prism 3.0 program. EC50 values, maximal effective concentrations are calculated and compared to positive controls.
Utilizing the tests set forth above, Table 3 summaries the ENaC blocking ability of some of the amides of this invention when assayed in canine bronchial epithelium.

[3] = 0.12% sodium chloride solution, 0.12% NaCl solution, read-out: S1 = Solubility in 0.12% NaCl Solution

## CS(=O)(=O)O.CS(=O)(=O)O.N=C(NCCCCc1ccc(C(=O)N2CCNCC2)cc1)NC(=O)c1nc(Cl)c(N)nc1N [PSA23607, N-(3,5-Diamino-6-chloropyrazine-2-carbonyl)-N′-{4-[4-(piperazine-1-carbonyl)phenyl]butyl}guanidine bis-methanesulfonate]
[1]; 0.12% NaCl solution, read-out: S1 = Solubility in 0.12% NaCl Solution
  solubility: > 5000 µg/mL
[2]
  IC50: 12.5 ± 0.5 nM
other
  melting point: 122 to 124 °C

## N=C(NCCCCc1ccc(OCC(=O)OCCN2CCCCC2)cc1)NC(=O)c1nc(Cl)c(N)nc1N
other
  melting point: 60 to 62 °C

## N=C(NCCCCc1ccc(OCC(=O)NCCN)cc1)NC(=O)c1nc(Cl)c(N)nc1N [compound 237778]
[1]; [3]
  solubility: > 5000 µg/mL
[2]
  IC50: 5 ± 2 nM
  Fold Amiloride (PSA4022 = 100): 146

## CN(C)CCCNC(=O)COc1ccc(CCCCNC(=N)NC(=O)c2nc(Cl)c(N)nc2N)cc1 (as salt: methanesulfonate)
other
  melting point: 187 to 190 °C

## N=C(NCCCCc1ccc(OCC(N)=O)cc1)NC(=O)c1nc(Cl)c(N)nc1N [compound 9714]
[1]; [3]
  solubility: < 100 µg/mL
[1]; 0.9% sodium chloride solution (normal saline), 0.9% NaCl solution (normal saline), read-out: S2 = Solubility in 0.9% NaCl Solution (normal Saline)
  solubility: < 100 µg/mL
[2]
  IC50: 15.2 nM
  Fold Amiloride (PSA4022 = 100): 62

## N=C(NCCCCc1ccc(OCC(=O)OCCN)cc1)NC(=O)c1nc(Cl)c(N)nc1N (as salt: hydrochloride)
other
  melting point: 66 to 68 °C

## N=C(NCCCCc1ccc(OCC(=O)OCC2CCNCC2)cc1)NC(=O)c1nc(Cl)c(N)nc1N (as salt: hydrochloride)
other
  melting point: 100 to 102 °C
